Experiments:
Penicillium digitatum [1] = experiment: in vivo contact drench assay on oranges
Protocol: (§1) In order to assess the activity of Compound A (FIG. 1) as a contact drench fungicide, an in vivo assay is developed. […] Compound A is dissolved in water to achieve a final treatment solution concentration of 250, 50, or 10 mg/L. The fruit is dipped in Compound A solution for 1 minute and allowed to dry for 1 hour. Fruit wounds are then inoculated with 30 μL of 1×10^6 per mL Penicillium expansum spore suspension (apple) or Penicillium digitatum spore suspension (orange). Clamshells are then placed in a 10.8-cup SnapWare airtight container (Model #109842) and incubated for 3 days at 21° C.

Penicillium expansum [2] = experiment: in vivo contact drench assay on apples
Protocol: as §1

Botrytis cinerea = experiment: in vivo volatile bioassay using strawberry, grape and blueberry
Protocol: In order to assess the in vivo activity of volatile antimicrobial Compound A in fruit, a volatile bioassay is developed using strawberry, grape and blueberry. Eight strawberries, 16 grapes or 30 blueberries (per replicate) are placed in a commercially relevant sized PET clamshell, with the stem end facing up for blueberries and grapes, and downwards for strawberries. A fresh wound is inoculated with 20 μL (strawberry and grape) or 10 μL (blueberry) of 1×10^6 per mL Botrytis cinerea spore suspension. The clamshells are placed inside a 10.8-cup SnapWare airtight container (Model #109842). A 42.5 mm Whatman #1 filter disk (Cat. No. 1001-042) is placed on a watch glass. Compound A is dissolved in acetone and added to the disks in a dose dependent manner to produce a final headspace concentration of 0.4, 2, or 10 mg/L. The acetone is permitted to evaporate for five minutes. The containers are then closed with lids and placed for three days at 21° C. After storage, fruits are evaluated for incidence and severity (0 to 4) of disease for an additional three days at 21° C., with results summarized in Table 17.

Penicillium digitatum [3] = experiment: in vitro contact fungicide assay (amended PDA); format: cell-based; settings: three days at 23° C.
Protocol: (§2) In order to assess the activity of Compound A as a contact fungicide, an in vitro assay is developed. A 6 cm-diameter Petri plate is used. Compound A is amended into full-strength Potato Dextrose Agar (PDA) to achieve a final solution concentration of 10, 2, 0.4, or 0.08 mg/L, and 15-mL volume of solution is added to each plate. After cooling, 1 μL of 1×10^5 per mL Penicillium expansum or Penicillium digitatum spore suspension is spot-pipetted into the center of the agar.
(§3) Plates are sealed with a parafilm and placed in an incubator held at 23° C. After three days of storage, the cultures are evaluated for percent growth relative to control based on measurement of fungal colony diameter.

Penicillium expansum [4] = experiment: in vitro contact fungicide assay (amended PDA); format: cell-based; settings: three days at 23° C.
Protocol: as §2, §3

Alternaria alternata = experiment: combination treatment with 1-MCP on tomato; format: in vivo; settings: tomatoes
Protocol: Each tomato fruit is wounded three times and inoculated with 1×10^6 spores/mL of Alternaria alternata and then placed in a 117 L Rubbermaid storage box (Cat #2244) with two small fans placed in opposite ends of the container. A 1000 ppb v/v 1-MCP treatment is applied (AgroFresh, Springhouse, Pa.) for 24 hours at 21° C. After completion of the 1-MCP treatment, the tomatoes are removed and placed in a 10.8-cup […] airtight container (Model #109842). […] The tomatoes are incubated for three days at 21° C., then evaluated for an additional three days at 21° C. for disease incidence and severity. Results listed in Table 29 show good activity against Alternaria alternata infection of tomato.

[5] = Blueberry, 0.4 mg/L, evaluation day 0
[6] = Blueberry, 0.4 mg/L, evaluation day 1
[7] = Blueberry, 0.4 mg/L, evaluation day 2
[8] = Blueberry, 0.4 mg/L, evaluation day 3
[9] = Blueberry, 2 mg/L, evaluation day 0
[10] = Blueberry, 2 mg/L, evaluation day 1
[11] = Blueberry, 2 mg/L, evaluation day 2
[12] = Blueberry, 2 mg/L, evaluation day 3
[13] = Blueberry, 10 mg/L, evaluation day 0
[14] = Blueberry, 10 mg/L, evaluation day 1
[15] = Blueberry, 10 mg/L, evaluation day 2
[16] = Blueberry, 10 mg/L, evaluation day 3
[17] = Grape, 0.4 mg/L, evaluation day 0
[18] = Grape, 0.4 mg/L, evaluation day 1
[19] = Grape, 0.4 mg/L, evaluation day 2
[20] = Grape, 0.4 mg/L, evaluation day 3
[21] = Grape, 2 mg/L, evaluation day 2
[22] = Grape, 2 mg/L, evaluation day 3
[23] = Grape, 10 mg/L, evaluation day 2
[24] = Grape, 10 mg/L, evaluation day 3
[25] = Strawberry, 0.4 mg/L, evaluation day 0
[26] = Strawberry, 0.4 mg/L, evaluation day 1
[27] = Strawberry, 0.4 mg/L, evaluation day 2
[28] = Strawberry, 0.4 mg/L, evaluation day 3
[29] = Strawberry, 2 mg/L, evaluation day 0
[30] = Strawberry, 2 mg/L, evaluation day 1
[31] = Strawberry, 2 mg/L, evaluation day 2
[32] = Strawberry, 2 mg/L, evaluation day 3
[33] = Strawberry, 10 mg/L, evaluation day 0
[34] = Strawberry, 10 mg/L, evaluation day 1
[35] = Strawberry, 10 mg/L, evaluation day 2
[36] = Strawberry, 10 mg/L, evaluation day 3

## OB1OCc2cc(F)ccc21 [Compound A]
Penicillium digitatum [1]; dip 10 mg/L
  Sporulation (mm): 16.6 mm
  Water soaked (mm): 27.5 mm
Penicillium digitatum [1]; dip 50 mg/L
  Sporulation (mm): 12.0 mm
  Water soaked (mm): 18.8 mm
Penicillium digitatum [1]; dip 250 mg/L
  Sporulation (mm): 0.4 mm
  Water soaked (mm): 1.7 mm
Penicillium expansum [2]; dip 10 mg/L
  Browning (mm): 8.5 mm
  Sporulation (mm): 2.1 mm
Penicillium expansum [2]; dip 50 mg/L
  Browning (mm): 3.7 mm
  Sporulation (mm): 1.6 mm
Penicillium expansum [2]; dip 250 mg/L
  Browning (mm): 0.8 mm
  Sporulation (mm): 0.5 mm
Botrytis cinerea; [5]
  Incidence (%): 21%
  Severity (0-4): 0.1
Botrytis cinerea; [6]
  Incidence (%): 21%
  Severity (0-4): 0.2
Botrytis cinerea; [7]
  Incidence (%): 40.3%
  Severity (0-4): 0.5
Botrytis cinerea; [8]
  Incidence (%): 62.9%
  Severity (0-4): 1
Botrytis cinerea; [9]
  Incidence (%): 9.7%
  Severity (0-4): 0
Botrytis cinerea; [10]
  Incidence (%): 9.7%
  Severity (0-4): 0
Botrytis cinerea; [11]
  Incidence (%): 9.7%
  Severity (0-4): 0.1
Botrytis cinerea; [12]
  Incidence (%): 40.3%
  Severity (0-4): 0.6
Botrytis cinerea; [13]
  Incidence (%): 12.9%
  Severity (0-4): 0.1
Botrytis cinerea; [14]
  Incidence (%): 12.9%
  Severity (0-4): 0.1
Botrytis cinerea; [15]
  Incidence (%): 12.9%
  Severity (0-4): 0.2
Botrytis cinerea; [16]
  Incidence (%): 41.9%
  Severity (0-4): 0.6
Botrytis cinerea; [17]
  Incidence (%): 3.1%
  Severity (0-4): 0
Botrytis cinerea; [18]
  Incidence (%): 3.1%
  Severity (0-4): 0
Botrytis cinerea; [19]
  Incidence (%): 15.6%
  Severity (0-4): 0.2
Botrytis cinerea; [20]
  Incidence (%): 62.5%
  Severity (0-4): 0.5
Botrytis cinerea; Grape, 2 mg/L, evaluation day 0
  Severity (0-4): 0
Botrytis cinerea; Grape, 2 mg/L, evaluation day 1
  Severity (0-4): 0
Botrytis cinerea; [21]
  Incidence (%): 0%
  Severity (0-4): 0
Botrytis cinerea; [22]
  Incidence (%): 56.3%
  Severity (0-4): 0.3
Botrytis cinerea; Grape, 10 mg/L, evaluation day 0
  Severity (0-4): 0
Botrytis cinerea; Grape, 10 mg/L, evaluation day 1
  Severity (0-4): 0
Botrytis cinerea; [23]
  Incidence (%): 3.1%
  Severity (0-4): 0
Botrytis cinerea; [24]
  Incidence (%): 56.3%
  Severity (0-4): 0.4
Botrytis cinerea; [25]
  Incidence (%): 0%
  Severity (0-4): 0
Botrytis cinerea; [26]
  Incidence (%): 21.4%
  Severity (0-4): 0.1
Botrytis cinerea; [27]
  Incidence (%): 21.4%
  Severity (0-4): 0.1
Botrytis cinerea; [28]
  Incidence (%): 28.6%
  Severity (0-4): 0.5
Botrytis cinerea; [29]
  Incidence (%): 14.3%
  Severity (0-4): 0.1
Botrytis cinerea; [30]
  Incidence (%): 50%
  Severity (0-4): 0.3
Botrytis cinerea; [31]
  Incidence (%): 50%
  Severity (0-4): 0.3
Botrytis cinerea; [32]
  Incidence (%): 64.3%
  Severity (0-4): 0.5
Botrytis cinerea; [33]
  Incidence (%): 7.1%
  Severity (0-4): 0
Botrytis cinerea; [34]
  Incidence (%): 35.7%
  Severity (0-4): 0.2
Botrytis cinerea; [35]
  Incidence (%): 42.9%
  Severity (0-4): 0.5
Botrytis cinerea; [36]
  Incidence (%): 42.9%
  Severity (0-4): 0.8
Penicillium digitatum [3]; 0.08 mg/L
  Incidence (%) P. digitatum: 42.0%
Penicillium digitatum [3]; 0.4 mg/L
  Incidence (%) P. digitatum: 12.5%
Penicillium digitatum [3]; 2 mg/L
  Incidence (%) P. digitatum: 0.0%
Penicillium digitatum [3]; 10 mg/L
  Incidence (%) P. digitatum: 0.0%
Penicillium expansum [4]; 0.08 mg/L
  Incidence (%) P. expansum: 93.1%
Penicillium expansum [4]; 0.4 mg/L
  Incidence (%) P. expansum: 33.0%
Penicillium expansum [4]; 2 mg/L
  Incidence (%) P. expansum: 0.0%
Penicillium expansum [4]; 10 mg/L
  Incidence (%) P. expansum: 0.0%
Alternaria alternata; 0.4 mg/L
  Diameter of the rot (mm): 3.8 mm
Alternaria alternata; 2 mg/L
  Diameter of the rot (mm): 0.0 mm

— patent US9426996B2, “Use of benzoxaboroles as volatile antimicrobial agents on meats, plants, or plant parts” (AgroFresh Inc., priority 2013, dated 2016)
